Results published in US8461328B2, “Tricyclic heterocyclic compounds, compositions and methods of use thereof” (Genentech, Inc., priority 2010, dated 2013).
Read-outs that look alike come from different tables or passages of the source.

Legend:
Assay type in all cases: biochemical
TYK2 = biological target: T1, TYK2 (Homo sapiens, UniProt P29597); experiment: TYK2 inhibition (Table 4)
T1 construct: made in house; host or cells: SF9 insect cells (baculovirus)
T1 sequence (P29597 873-1187): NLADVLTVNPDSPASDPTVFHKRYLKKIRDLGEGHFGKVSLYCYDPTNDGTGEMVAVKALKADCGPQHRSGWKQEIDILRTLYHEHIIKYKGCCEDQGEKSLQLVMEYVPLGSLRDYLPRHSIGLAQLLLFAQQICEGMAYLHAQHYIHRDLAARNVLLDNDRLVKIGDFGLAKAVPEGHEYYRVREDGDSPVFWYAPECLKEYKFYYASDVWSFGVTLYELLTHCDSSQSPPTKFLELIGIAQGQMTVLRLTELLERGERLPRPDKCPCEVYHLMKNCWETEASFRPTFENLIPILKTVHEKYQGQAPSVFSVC

JAK1 = biological target: T2, JAK1 (Homo sapiens, UniProt P23458); experiment: JAK1 inhibition (Table 4)
T2 construct: made in house; host or cells: SF9 insect cells (baculovirus)
T2 sequence (P23458 852-1154): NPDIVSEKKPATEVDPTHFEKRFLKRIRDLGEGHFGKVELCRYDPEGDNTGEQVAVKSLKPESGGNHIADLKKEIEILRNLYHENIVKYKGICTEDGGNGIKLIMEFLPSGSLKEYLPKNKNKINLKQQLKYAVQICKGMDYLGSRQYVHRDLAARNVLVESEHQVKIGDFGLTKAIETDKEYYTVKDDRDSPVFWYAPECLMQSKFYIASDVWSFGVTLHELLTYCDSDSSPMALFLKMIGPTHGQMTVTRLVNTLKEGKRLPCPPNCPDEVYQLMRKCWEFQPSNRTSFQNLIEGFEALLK

JAK2 = biological target: T3, JAK2 (Homo sapiens, UniProt O60674); experiment: JAK2 inhibition (Table 4); details: read-out: JAK2 Ki
T3 construct: made in house; host or cells: SF9 insect cells (baculovirus)
T3 sequence (O60674 812-1132): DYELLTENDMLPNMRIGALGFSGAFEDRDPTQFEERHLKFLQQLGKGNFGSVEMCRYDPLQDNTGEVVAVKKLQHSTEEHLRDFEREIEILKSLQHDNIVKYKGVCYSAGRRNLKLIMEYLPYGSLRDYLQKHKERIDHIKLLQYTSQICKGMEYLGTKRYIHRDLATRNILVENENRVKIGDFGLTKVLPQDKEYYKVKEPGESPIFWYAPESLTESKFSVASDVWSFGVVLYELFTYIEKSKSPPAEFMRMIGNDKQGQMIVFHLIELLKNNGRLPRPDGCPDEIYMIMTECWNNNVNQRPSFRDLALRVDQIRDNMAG

JAK3 = biological target: T4, JAK3 (Homo sapiens, UniProt P52333); experiment: JAK3 inhibition (Table 4)
T4 construct: made in house; host or cells: SF9 insect cells (baculovirus)
T4 sequence (P52333 783-1124): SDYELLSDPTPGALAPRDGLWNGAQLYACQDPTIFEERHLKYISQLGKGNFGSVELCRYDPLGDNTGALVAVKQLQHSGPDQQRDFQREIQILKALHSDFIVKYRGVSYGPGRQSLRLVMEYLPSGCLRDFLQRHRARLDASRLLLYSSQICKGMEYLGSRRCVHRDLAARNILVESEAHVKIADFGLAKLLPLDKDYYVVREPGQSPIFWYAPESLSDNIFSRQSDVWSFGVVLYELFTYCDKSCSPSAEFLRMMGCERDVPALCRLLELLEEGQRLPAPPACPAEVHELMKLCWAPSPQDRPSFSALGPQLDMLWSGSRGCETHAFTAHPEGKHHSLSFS

Structure (SMILES)	Ki (TYK2)	Ki (JAK1; read-out: JAK1 Ki)	Ki (JAK2)	Ki (JAK3; read-out: JAK3 Ki)	Ki (JAK1; JAK1 Ki)	Ki (JAK3; JAK3 Ki)
O=C([C@@H]1CCCN1)N1CCC(n2cnc3cnc4[nH]ccc4c32)CC1 [Example 249, (S)-Pyrrolidin-2-yl-[4-(6H-1,3,5,6-tetraaza-as-indacen-1-yl)-piperidin-1-yl]-methanone]	1110 nM	48.6 nM	365 nM	1180 nM		
N#Cc1cccc(CN2CCC[C@@H](n3cnc4cnc5[nH]ccc5c43)C2)c1 [Example 45, 3-[(R)-3-(6H-1,3,5,6-Tetraaza-as-indacen-1-yl)-piperidin-1-ylmethyl]benzonitrile]	129 nM	7.58 nM	18 nM	27.5 nM		
c1cnc(CN2CCC(n3cnc4cnc5[nH]ccc5c43)CC2)cn1 [Example 92, 1-(1-Pyrazin-2-ylmethyl-piperidin-4-yl)-1,6-dihydro-1,3,5,6-tetraaza-as-indacene]	109 nM	3.64 nM	6.15 nM	25.6 nM		
CN(C)c1nc2cnc3[nH]ccc3c2n1C1CCN(CCC#N)CC1 [Example 656, 3-[4-(2-Dimethylamino-6H-1,2,3,5,6-tetraaza-as-indacen-1-yl)-piperidin-1-yl]-propionitrile]	420 nM	14.6 nM	77 nM	37.7 nM		
Cn1nccc1C(=O)N1CCC(n2cnc3cnc4[nH]ccc4c32)CC1 [Example 84, (2-Methyl-2H-pyrazol-3-yl)-[4-(6H-1,3,5,6-tetraaza-as-indacen-1-yl)-piperidin-1-yl]methanone]	160 nM	11.6 nM	36.1 nM	747 nM		
COC(=O)N[C@H]1CC[C@H](n2c(CO)nc3cnc4[nH]ccc4c32)CC1 [Example 600, Trans[4-(2-hydroxymethyl-6H-1,2,3,5,6-tetraaza-as-indacen-1-yl)-cyclohexyl]-carbamic acid methyl ester]	20.8 nM	2.73 nM	23.2 nM	172 nM		
c1cncc(CN2CCCC(n3cnc4cnc5[nH]ccc5c43)CC2)c1 (racemic) [Example 487, 1-(1-Pyridin-3-ylmethyl-azepan-4-yl)-1,6-dihydro-1,3,5,6-tetraaza-as-indacene]	234 nM	16.5 nM	30.8 nM	37.1 nM		
CN1CCC[C@H]1CN1CCC(n2cnc3cnc4[nH]ccc4c32)CC1 [Example 177, 1-[1-((S)-1-Methyl-pyrrolidin-2-ylmethyl)-piperidin-4-yl]-1,6-dihydro-1,2,3,5,6-tetraaza-as-indacene]	519 nM	42 nM	144 nM	1400 nM		
N#CCC1(N2CCC(n3cnc4cnc5[nH]ccc5c43)CC2)COC1 [Example 195, {3-[4-(6H-1,2,3,5,6-Tetraaza-as-indacen-1-yl)-piperidin-1-yl]-oxetan-3-yl}-acetonitrile]	2.16 nM	0.66 nM	1.13 nM	27.6 nM		
COC1CN(C)CCC1n1c(C)nc2cnc3[nH]ccc3c21 (racemic) [Example 534, 1-(3-Methoxy-1-methyl-piperidin-4-yl)-2-methyl-1,6-dihydro-1,3,5,6-tetraaza-as-indacene]	150 nM	9.86 nM	24.4 nM	88.9 nM		
COC(=O)CC(c1cccnc1)N1CCC(n2cnc3cnc4[nH]ccc4c32)CC1 (racemic) [Example 126, 3-pyridin-3-yl-3-[4-(6H-1,2,3,5,6-tetraaza-as-indacen-1-yl)-piperidin-1-yl]-propionic acid methyl ester]	193 nM	15.5 nM	15.2 nM	418 nM		
CC(C)c1nc2cnc3[nH]ccc3c2n1C1CCN(Cc2ccccc2)CC1 [Example 223, 1-(1-Benzyl-piperidin-4-yl)-2-isopropyl-1,6-dihydro-1,3,5,6-tetraaza-as-indacene]	1470 nM	3.74 nM	24.4 nM	8.11 nM		
N#Cc1ccc(CN2CC[C@@H](n3cnc4cnc5[nH]ccc5c43)C2)cc1 [Example 191, 4-[(R)-3-(6H-1,2,3,5,6-Tetraaza-as-indacen-1-yl)-pyrrolidin-1-ylmethyl]-benzonitrile]	169 nM	4.87 nM	17.6 nM	192 nM		
Cn1cc2c(n1)CCC(n1cnc3cnc4[nH]ccc4c31)C2 (racemic) [Example 956, 1-(2-Methyl-4,5,6,7-tetrahydro-2H-indazol-5-yl)-1,6-dihydro-1,3,5,6-tetraaza-as-indacene]	282 nM	55.3 nM	89.8 nM	410 nM		
CCOC(=O)N1CCC[C@@H](n2c([C@@H](C)O)nc3cnc4[nH]ccc4c32)C1 [Example 800, (R)-3-[2-((R)-1-Hydroxy-ethyl)-6H-1,3,5,6-tetraaza-as-indacen-1-yl]-piperidine-1-carboxylic acid ethyl ester]	1090 nM	163 nM	1460 nM	1420 nM		
CCN1CCC(n2c(CCNS(C)(=O)=O)nc3cnc4[nH]ccc4c32)C(F)(F)C1 (single isomer, unassigned) [Example 806, N-{2-[1-(1-Ethyl-3,3-difluoro-piperidin-4-yl)-1,6-dihydro-1,3,5,6-tetraaza-as-indacen-2-yl]-ethyl}-methanesulfonamide]	179 nM	3.41 nM	21.2 nM	17.9 nM		
N#CC[C@H]1CC[C@H](n2c(CO)nc3cnc4[nH]ccc4c32)CC1 [Example 645, Trans[4-(2-hydroxymethyl-6H-1,2,3,5,6-tetraaza-as-indacen-1-yl)-cyclohexyl]-acetonitrile]	0.25 nM		0.39 nM		0.13 nM	3.56 nM
C[C@@H](O)c1nc2cnc3[nH]ccc3c2n1[C@@H]1CCCN(C(=O)C2CC2)C1 [Example 794, Cyclopropyl-{(R)-3-[2-((R)-1-hydroxy-ethyl)-6H-1,3,5,6-tetraaza-as-indacen-1-yl]-piperidin-1-yl}-methanone]	420 nM	116 nM	886 nM	1230 nM		
CS(=O)(=O)NCCc1nc2cnc3[nH]ccc3c2n1[C@@H]1CCCOC1 [Example 862, (R)—N-{2-[1-(Tetrahydro-pyran-3-yl)-1,6-dihydro-1,3,5,6-tetraaza-as-indacen-2-yl]-ethyl}-methanesulfonamide]	994 nM	49.5 nM	437 nM	445 nM		
CC(=O)NCCc1nc2cnc3[nH]ccc3c2n1C1CCCCC1 [Example 677, N-[2-(1-Cyclohexyl-1,6-dihydro-1,2,3,5,6-tetraaza-as-indacen-2-yl)-ethyl]-acetamide]	27.5 nM	2.47 nM	29.5 nM	32.9 nM		
N#CCCN1CCC(n2c(CC3CCCC3)nc3cnc4[nH]ccc4c32)CC1 [Example 116, 3-[4-(2-Cyclopentylmethyl-6H-1,2,3,5,6-tetraaza-as-indacen-1-yl)-piperidin-1-yl]-propionitrile]	322 nM	19.7 nM	76.9 nM	58 nM		
CCN1CC[C@@H](n2c([C@@H](C)O)nc3cnc4[nH]ccc4c32)[C@@H](F)C1 [Example 868, (R)-1-[1-((3S,4R)-1-Ethyl-3-fluoro-piperidin-4-yl)-1,6-dihydro-1,3,5,6-tetraaza-as-indacen-2-yl]-ethanol]	149 nM	7.07 nM	148 nM	119 nM		
CNC(=O)Cc1nc2cnc3[nH]ccc3c2n1C1CCN(Cc2ccccc2)CC1 [Example 21, 2-[1-(1-Benzyl-piperidin-4-yl)-1,6-dihydro-1,2,3,5,6-tetraaza-as-indacen-2-yl]-N-methyl acetamide]	627 nM	9.93 nM	38.5 nM	37.6 nM		
CC(C)(C)[S+]([O-])NCc1nc2cnc3[nH]ccc3c2n1C1CCCCC1 (stereo not shown) [Example 690, 2-Methyl-propane-2-sulfinic acid (1-cyclohyl-1,6-dihydro-1,2,3,5,6-tetraaza-as-indacen-2-ylmethyl)-amide]	270 nM	62.2 nM	199 nM	229 nM		
N#C[C@@H]1C[C@@H]1C(=O)N1CCC[C@@H](n2cnc3cnc4[nH]ccc4c32)C1 [Example 340, (1R,2S)-2-[(R)-3-(6H-1,3,5,6-Tetraaza-as-indacen-1-yl)-piperidine-1-carbonyl]-cyclopropanecarbonitrile]	101 nM	17.2 nM	19.5 nM	24.6 nM		
N#C[C@H]1CC[C@H](n2cnc3cnc4[nH]ccc4c32)CC1 [Example 640, trans 4-(6H-1,2,3,5,6-Tetraaza-as-indacen-1-yl)-cyclohexanecarbonitrile]	25.1 nM	3.93 nM	9.66 nM	82.7 nM		
FC(F)(F)CNC1CCC(n2cnc3cnc4[nH]ccc4c32)C1 (racemic) [Example 717, [3-(6H-1,3,5,6-tetraaza-as-indacen-1-yl)-cyclopentyl]-(2,2,2-trifluoro-ethyl)-amine]	35 nM	6.11 nM	13.3 nM	59.7 nM		
Cc1nc2cnc3[nH]ccc3c2n1[C@@H]1CC[C@@H](NCCC#N)C1 [Example 724, 3-[(1R,3R)-3-(2-Methyl-6H-1,3,5,6-tetraaza-as-indacen-1-yl)-cyclopentylamino]-propionitrile]	78.9 nM	6.27 nM	24.3 nM	16 nM		
